From ChEMBL document CHEMBL5325488, “Discovery of SMD-3040 as a Potent and Selective SMARCA2 PROTAC Degrader with Strong in vivo Antitumor Activity” (J Med Chem, 2023)
Calls of active or inactive are those of the source. The rule behind the calls is not given here.

Experiments:
[1] = biological target: T1, von Hippel-Lindau disease tumor suppressor/SWI/SNF-related matrix-associated actin-dependent regulator of chromatin subfamily A member 2 (Homo sapiens, UniProt P51531+P40337); assay: (§1) PROTAC activity at VHL/C-terminal HiBiT fused SMARCA2 in human HeLa cells assessed as induction of SMARCA2 degradation pre-treated with MLN4924 for 2 hrs followed by compound treatment for 24 hrs by Nano-Glo HiBiT analysis; type: cell-based
[2] = biological target: T1, von Hippel-Lindau disease tumor suppressor/SWI/SNF-related matrix-associated actin-dependent regulator of chromatin subfamily A member 2; assay: PROTAC activity at VHL/C-terminal HiBiT fused SMARCA2 in human HeLa cells assessed as induction of SMARCA2 degradation at 0.0001 to 1 uM incubated for 3 hrs by Nano-Glo HiBiT analysis relative to control; type: cell-based; settings: dose 0.0001-1 µM
[3] = biological target: T1, von Hippel-Lindau disease tumor suppressor/SWI/SNF-related matrix-associated actin-dependent regulator of chromatin subfamily A member 2; assay: PROTAC activity at VHL/C-terminal HiBiT fused SMARCA2 in human HeLa cells assessed as induction of SMARCA2 degradation pre-treated with PR171 for 2 hrs followed by compound treatment for 24 hrs by Nano-Glo HiBiT analysis; type: cell-based
[4] = Drug concentration in SCID mouse tumor xenografted with human MV4-11 cells at 50 mg/kg, iv measured after 48 hrs by LC-MS/MS method; type: ADME, organism-based, Neoplasm; settings: read-out: Ct
[5] = biological target: T2, von Hippel-Lindau disease tumor suppressor/SWI/SNF-related matrix-associated actin-dependent regulator of chromatin subfamily A member 4 (Homo sapiens, UniProt P51532+P40337); assay: In vivo PROTAC activity at VHL/SMARCA4 in SCID mouse xenografted with human MV4-11 cells assessed as remaining activity in tumor at 50 mg/kg, iv administered as single dose measured after 48 hrs by Western blotting analysis (reference value: 100 +/- 15 % ); type: ADME, organism-based
Target sequence in this assay (P51532 whole entry, the tested form may be a part): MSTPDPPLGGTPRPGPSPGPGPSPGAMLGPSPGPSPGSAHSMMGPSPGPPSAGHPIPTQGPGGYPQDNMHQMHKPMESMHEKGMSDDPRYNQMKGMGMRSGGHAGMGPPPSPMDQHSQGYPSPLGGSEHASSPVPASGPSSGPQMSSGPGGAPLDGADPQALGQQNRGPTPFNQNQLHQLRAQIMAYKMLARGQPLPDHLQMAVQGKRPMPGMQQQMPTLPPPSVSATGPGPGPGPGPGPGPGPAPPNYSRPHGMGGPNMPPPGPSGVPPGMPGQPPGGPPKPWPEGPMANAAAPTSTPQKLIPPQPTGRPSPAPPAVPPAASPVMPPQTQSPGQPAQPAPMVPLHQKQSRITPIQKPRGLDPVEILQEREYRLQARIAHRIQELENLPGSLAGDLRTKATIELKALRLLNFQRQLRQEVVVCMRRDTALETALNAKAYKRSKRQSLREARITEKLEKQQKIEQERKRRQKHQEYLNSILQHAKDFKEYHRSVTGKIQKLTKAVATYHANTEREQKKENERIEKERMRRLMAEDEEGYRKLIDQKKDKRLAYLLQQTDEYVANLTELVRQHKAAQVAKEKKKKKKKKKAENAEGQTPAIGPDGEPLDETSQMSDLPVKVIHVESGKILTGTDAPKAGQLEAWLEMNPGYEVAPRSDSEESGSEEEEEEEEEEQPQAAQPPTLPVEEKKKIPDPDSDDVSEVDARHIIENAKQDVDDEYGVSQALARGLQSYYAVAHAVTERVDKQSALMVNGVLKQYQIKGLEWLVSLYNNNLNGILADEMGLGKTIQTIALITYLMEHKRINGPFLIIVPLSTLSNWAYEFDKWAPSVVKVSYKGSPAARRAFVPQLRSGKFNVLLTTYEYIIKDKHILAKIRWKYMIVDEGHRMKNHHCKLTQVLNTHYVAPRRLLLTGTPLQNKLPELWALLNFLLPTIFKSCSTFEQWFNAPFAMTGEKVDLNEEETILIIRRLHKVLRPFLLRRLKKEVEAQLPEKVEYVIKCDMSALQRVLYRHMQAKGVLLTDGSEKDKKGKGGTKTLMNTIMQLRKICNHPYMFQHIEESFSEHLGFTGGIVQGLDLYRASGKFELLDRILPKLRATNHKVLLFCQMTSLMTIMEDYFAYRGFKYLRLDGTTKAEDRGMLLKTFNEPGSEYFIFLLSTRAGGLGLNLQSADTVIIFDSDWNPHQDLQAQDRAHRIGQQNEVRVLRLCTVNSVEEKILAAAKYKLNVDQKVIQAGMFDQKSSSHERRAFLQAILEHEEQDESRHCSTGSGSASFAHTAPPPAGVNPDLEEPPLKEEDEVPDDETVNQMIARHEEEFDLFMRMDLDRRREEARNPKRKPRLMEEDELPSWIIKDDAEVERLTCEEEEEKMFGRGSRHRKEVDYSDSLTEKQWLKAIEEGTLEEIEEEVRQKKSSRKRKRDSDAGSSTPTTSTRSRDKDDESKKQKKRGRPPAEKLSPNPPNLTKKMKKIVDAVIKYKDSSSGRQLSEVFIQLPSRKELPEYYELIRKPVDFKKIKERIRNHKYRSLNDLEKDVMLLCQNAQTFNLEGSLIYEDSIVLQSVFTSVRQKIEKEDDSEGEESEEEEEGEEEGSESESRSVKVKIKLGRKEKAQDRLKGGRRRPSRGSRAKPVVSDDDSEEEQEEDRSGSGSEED
Target sequence in this assay (P40337 whole entry, the tested form may be a part): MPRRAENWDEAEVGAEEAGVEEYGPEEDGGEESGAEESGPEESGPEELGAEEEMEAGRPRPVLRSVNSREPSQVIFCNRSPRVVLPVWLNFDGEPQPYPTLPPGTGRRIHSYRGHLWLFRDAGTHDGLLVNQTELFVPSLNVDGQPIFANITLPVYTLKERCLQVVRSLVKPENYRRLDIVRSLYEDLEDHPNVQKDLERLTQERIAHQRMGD

[6] = biological target: T2, von Hippel-Lindau disease tumor suppressor/SWI/SNF-related matrix-associated actin-dependent regulator of chromatin subfamily A member 4; assay: PROTAC activity at VHL/C-terminal HiBiT fused SMARCA4 in human HeLa cells assessed as induction of SMARCA4 degradation by measuring maximal efficacy at 0.001 to 10 uM incubated for 1 hr by Nano-Glo HiBiT analysis relative to control; type: cell-based; settings: dose 0.001-10 µM
[7] = biological target: T2, von Hippel-Lindau disease tumor suppressor/SWI/SNF-related matrix-associated actin-dependent regulator of chromatin subfamily A member 4; assay: PROTAC activity at VHL/C-terminal HiBiT fused SMARCA4 in human HeLa cells assessed as induction of SMARCA4 degradation incubated for 3 hrs by Nano-Glo HiBiT analysis; type: cell-based
Target sequence in this assay (P51532 whole entry, the tested form may be a part): as the sequence (P51532 whole entry, the tested form may be a part) above
Target sequence in this assay (P40337 whole entry, the tested form may be a part): as the sequence (P40337 whole entry, the tested form may be a part) above

[8] = tested on: SK-MEL-5; assay: Antiproliferative activity against SMARCA4-deficient human SK-MEL-5 cells assessed as cell growth inhibition measured after 7 days by WST-8 assay; type: functional; settings: SK-MEL-5, 168 h, time 7 day
[9] = biological target: T1, von Hippel-Lindau disease tumor suppressor/SWI/SNF-related matrix-associated actin-dependent regulator of chromatin subfamily A member 2; assay: In vivo PROTAC activity at VHL/SMARCA2 in SCID mouse xenografted with human MV4-11 cells assessed as remaining activity in tumor at 50 mg/kg, iv administered as single dose measured after 2 hrs by Western blotting analysis (reference value: 100 +/- 15 % ); type: ADME, organism-based
Target sequence in this assay (P51531 whole entry, the tested form may be a part): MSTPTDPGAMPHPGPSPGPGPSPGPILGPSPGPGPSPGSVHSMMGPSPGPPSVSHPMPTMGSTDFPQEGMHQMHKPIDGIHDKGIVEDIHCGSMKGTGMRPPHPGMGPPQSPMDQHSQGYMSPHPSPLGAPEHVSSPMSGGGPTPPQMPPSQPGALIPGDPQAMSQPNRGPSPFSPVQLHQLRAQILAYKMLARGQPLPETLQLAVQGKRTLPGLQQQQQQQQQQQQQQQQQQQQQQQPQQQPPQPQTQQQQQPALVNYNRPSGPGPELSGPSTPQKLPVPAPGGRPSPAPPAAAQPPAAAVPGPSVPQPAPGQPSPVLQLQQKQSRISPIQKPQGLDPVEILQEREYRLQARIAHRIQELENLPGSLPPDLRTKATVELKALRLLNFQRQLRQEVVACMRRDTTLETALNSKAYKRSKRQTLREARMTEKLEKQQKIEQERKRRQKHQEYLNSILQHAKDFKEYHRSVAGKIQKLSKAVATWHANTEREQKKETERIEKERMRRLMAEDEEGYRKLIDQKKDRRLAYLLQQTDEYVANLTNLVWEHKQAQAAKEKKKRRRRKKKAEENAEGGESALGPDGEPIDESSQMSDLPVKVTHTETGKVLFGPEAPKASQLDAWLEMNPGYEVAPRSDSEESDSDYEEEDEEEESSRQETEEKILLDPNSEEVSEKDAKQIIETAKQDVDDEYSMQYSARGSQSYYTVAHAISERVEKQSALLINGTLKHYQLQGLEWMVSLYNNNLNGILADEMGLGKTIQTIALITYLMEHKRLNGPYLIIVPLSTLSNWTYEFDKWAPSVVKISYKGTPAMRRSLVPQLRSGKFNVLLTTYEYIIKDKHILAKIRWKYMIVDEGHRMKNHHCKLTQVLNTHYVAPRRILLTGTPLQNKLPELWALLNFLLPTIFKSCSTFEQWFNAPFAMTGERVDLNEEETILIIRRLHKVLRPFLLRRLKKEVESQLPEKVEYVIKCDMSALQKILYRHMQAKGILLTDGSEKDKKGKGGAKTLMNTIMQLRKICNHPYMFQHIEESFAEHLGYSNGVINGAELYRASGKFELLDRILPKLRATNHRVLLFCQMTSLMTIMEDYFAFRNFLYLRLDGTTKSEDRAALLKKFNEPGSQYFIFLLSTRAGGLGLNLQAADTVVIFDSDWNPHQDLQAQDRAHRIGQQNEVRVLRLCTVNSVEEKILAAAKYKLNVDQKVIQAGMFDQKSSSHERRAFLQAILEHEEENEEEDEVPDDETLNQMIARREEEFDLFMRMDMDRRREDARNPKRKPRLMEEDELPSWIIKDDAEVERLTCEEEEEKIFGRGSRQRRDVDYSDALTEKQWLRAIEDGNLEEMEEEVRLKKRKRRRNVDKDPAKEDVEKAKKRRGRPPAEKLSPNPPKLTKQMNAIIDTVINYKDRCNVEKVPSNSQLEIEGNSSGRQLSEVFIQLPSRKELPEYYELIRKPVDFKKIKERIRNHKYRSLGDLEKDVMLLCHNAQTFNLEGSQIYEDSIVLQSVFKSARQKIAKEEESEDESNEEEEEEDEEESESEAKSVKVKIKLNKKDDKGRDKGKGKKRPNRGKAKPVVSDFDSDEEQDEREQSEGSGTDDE
Target sequence in this assay (P40337 whole entry, the tested form may be a part): as the sequence (P40337 whole entry, the tested form may be a part) above

[10] = biological target: T1, von Hippel-Lindau disease tumor suppressor/SWI/SNF-related matrix-associated actin-dependent regulator of chromatin subfamily A member 2; assay: In vivo PROTAC activity at VHL/SMARCA2 in SCID mouse xenografted with human MV4-11 cells assessed as reduction of SMARCA2 level in tumor at 50 mg/kg, iv administered as single dose measured after 24 hrs by Western blotting analysis; type: ADME, organism-based; parameters: scale not given: the % may be the effect or the level left
Target sequence in this assay (P51531 whole entry, the tested form may be a part): as the sequence (P51531 whole entry, the tested form may be a part) above
Target sequence in this assay (P40337 whole entry, the tested form may be a part): as the sequence (P40337 whole entry, the tested form may be a part) above

[11] = biological target: T2, von Hippel-Lindau disease tumor suppressor/SWI/SNF-related matrix-associated actin-dependent regulator of chromatin subfamily A member 4; assay: In vivo PROTAC activity at VHL/SMARCA4 in SCID mouse xenografted with human MV4-11 cells assessed as reduction of SMARCA4 level in tumor at 50 mg/kg, iv administered as single dose measured after 6 hrs by Western blotting analysis; type: ADME, organism-based; parameters: scale not given: the % may be the effect or the level left
Target sequence in this assay (P51532 whole entry, the tested form may be a part): as the sequence (P51532 whole entry, the tested form may be a part) above
Target sequence in this assay (P40337 whole entry, the tested form may be a part): as the sequence (P40337 whole entry, the tested form may be a part) above

[12] = biological target: T1, von Hippel-Lindau disease tumor suppressor/SWI/SNF-related matrix-associated actin-dependent regulator of chromatin subfamily A member 2; assay: PROTAC activity at VHL/wild-type SMARCA2 in human NCI-H838 cells assessed as induction of SMARCA2 degradation incubated for 24 hrs by Western blotting analysis; type: cell-based
Target sequence in this assay (P51531 whole entry, the tested form may be a part): as the sequence (P51531 whole entry, the tested form may be a part) above
Target sequence in this assay (P40337 whole entry, the tested form may be a part): as the sequence (P40337 whole entry, the tested form may be a part) above

[13] = biological target: T1, von Hippel-Lindau disease tumor suppressor/SWI/SNF-related matrix-associated actin-dependent regulator of chromatin subfamily A member 2; assay: as §1, with “(2S,4R)-1-((S)-2-acetamido-3,3-dimethylbutanoyl)-4-hydroxy-N-((S)-1-(4-(4-methylthiazol-5-yl)phenyl)ethyl)pyrrolidine-2-carboxamide” for “MLN4924”; type: cell-based
[14] = biological target: T1, von Hippel-Lindau disease tumor suppressor/SWI/SNF-related matrix-associated actin-dependent regulator of chromatin subfamily A member 2; assay: In vivo PROTAC activity at VHL/SMARCA2 in SCID mouse xenografted with human NCI-H838 cells assessed as reduction of SMARCA2 level in tumor at 50 mg/kg, iv administered as single dose measured after 48 hrs by Western blotting analysis; type: functional, organism-based; parameters: scale not given: the % may be the effect or the level left
[15] = Toxicity in SCID mouse xenografted with human SK-MEL-5 cells assessed as effect on change in body weight at 25 to 50 mg/kg, iv administered twice a week measured after 32 days; type: organism-based; settings: in vivo, 768 h, dose 25-50 mg/kg, time 32 day
[16] = Drug concentration in SCID mouse plasma xenografted with human MV4-11 cells at 50 mg/kg, iv measured after 72 hrs by LC-MS/MS method; type: ADME, organism-based
[17] = biological target: T1, von Hippel-Lindau disease tumor suppressor/SWI/SNF-related matrix-associated actin-dependent regulator of chromatin subfamily A member 2; assay: PROTAC activity at VHL/C-terminal HiBiT fused SMARCA2 in human HeLa cells assessed as induction of SMARCA2 degradation by measuring maximal efficacy at 0.0001 to 1 uM incubated for 24 hrs by Nano-Glo HiBiT analysis relative to control; type: cell-based; settings: dose 0.0001-1 µM
[18] = biological target: T2, von Hippel-Lindau disease tumor suppressor/SWI/SNF-related matrix-associated actin-dependent regulator of chromatin subfamily A member 4; assay: In vivo PROTAC activity at VHL/SMARCA4 in SCID mouse xenografted with human MV4-11 cells assessed as reduction of SMARCA4 level in tumor at 50 mg/kg, iv administered as single dose measured after 96 hrs by Western blotting analysis; type: ADME, organism-based; parameters: scale not given: the % may be the effect or the level left
Target sequence in this assay (P51532 whole entry, the tested form may be a part): as the sequence (P51532 whole entry, the tested form may be a part) above
Target sequence in this assay (P40337 whole entry, the tested form may be a part): as the sequence (P40337 whole entry, the tested form may be a part) above

[19] = biological target: T2, von Hippel-Lindau disease tumor suppressor/SWI/SNF-related matrix-associated actin-dependent regulator of chromatin subfamily A member 4; assay: PROTAC activity at VHL/C-terminal HiBiT fused SMARCA4 in human HeLa cells assessed as induction of SMARCA4 degradation incubated for 24 hrs by Nano-Glo HiBiT analysis; type: cell-based
Target sequence in this assay (P51532 whole entry, the tested form may be a part): as the sequence (P51532 whole entry, the tested form may be a part) above
Target sequence in this assay (P40337 whole entry, the tested form may be a part): as the sequence (P40337 whole entry, the tested form may be a part) above

[20] = Drug concentration in SCID mouse plasma xenografted with human MV4-11 cells at 50 mg/kg, iv measured after 24 hrs by LC-MS/MS method; type: ADME, organism-based
[21] = tested on: NCI-H1793; assay: Antiproliferative activity against SMARCA4-deficient human NCI-H1793 cells assessed as cell growth inhibition by measuring maximal efficacy measured after 7 days by WST-8 assay relative to control; type: functional; settings: time 7 day
[22] = biological target: T2, von Hippel-Lindau disease tumor suppressor/SWI/SNF-related matrix-associated actin-dependent regulator of chromatin subfamily A member 4; assay: PROTAC activity at VHL/wild-type SMARCA4 in human SK-MEL-28 cells assessed as induction of SMARCA4 degradation incubated for 24 hrs by Western blotting analysis; type: cell-based
Target sequence in this assay (P51532 whole entry, the tested form may be a part): as the sequence (P51532 whole entry, the tested form may be a part) above
Target sequence in this assay (P40337 whole entry, the tested form may be a part): as the sequence (P40337 whole entry, the tested form may be a part) above

[23] = tested on: SK-MEL-28; assay: Antiproliferative activity against human SK-MEL-28 cells expressing wild-type SMARCA2 assessed as cell growth inhibition by measuring maximal efficacy measured after 7 days by WST-8 assay relative to control; type: functional; settings: time 7 day
[24] = biological target: T2, von Hippel-Lindau disease tumor suppressor/SWI/SNF-related matrix-associated actin-dependent regulator of chromatin subfamily A member 4; assay: In vivo PROTAC activity at VHL/SMARCA4 in SCID mouse xenografted with human MV4-11 cells assessed as reduction of SMARCA4 level in tumor at 50 mg/kg, iv administered as single dose measured after 24 hrs by Western blotting analysis; type: ADME, organism-based; parameters: scale not given: the % may be the effect or the level left
[25] = Antiproliferative activity against SMARCA4-deficient human NCI-H1568 cells assessed as cell growth inhibition by measuring maximal efficacy measured after 7 days by WST-8 assay relative to control; type: functional; settings: time 7 day
[26] = biological target: T1, von Hippel-Lindau disease tumor suppressor/SWI/SNF-related matrix-associated actin-dependent regulator of chromatin subfamily A member 2; assay: In vivo PROTAC activity at VHL/SMARCA2 in SCID mouse xenografted with human MV4-11 cells assessed as remaining activity in tumor at 50 mg/kg, iv administered as single dose measured after 6 hrs by Western blotting analysis (reference value: 100 +/- 15 % ); type: ADME, organism-based
Target sequence in this assay (P51531 whole entry, the tested form may be a part): as the sequence (P51531 whole entry, the tested form may be a part) above
Target sequence in this assay (P40337 whole entry, the tested form may be a part): as the sequence (P40337 whole entry, the tested form may be a part) above

With `Cc1ncsc1-c1ccc([C@H](C)NC(=O)[C@@H]2C[C@@H](O)CN2C(=O)[C@@H](NC(=O)[C@H]2CC[C@H](CN3CC4(CCC(n5cc(-c6cc(-c7ccccc7O)nnc6N)cn5)CC4)C3)CC2)C(C)(C)C)cc1` the Activity [1] was “inactive”, the Emax [2] was 79% and the Activity [3] was “inactive”. The concentration at 48 h [4] was 978 ng/g, the Activity [5] was 87% and the Emax [6] was 20%. It also gave a DC50 [7] greater than 3300 nM, a GI50 [8] of 15 nM and an Activity [9] of 22%. It also gave an Activity [10] of 86%, an Activity [11] of 17% and a DC50 [12] of 63 nM. The Activity [13] was “inactive”, the Activity [14] was 75% and the Activity [15] was “Non-Toxic”. The concentration at 72 h [16] was 6.7 ng/mL, the Emax [17] was 90% and the Activity [18] was 16%. For the same molecule, the DC50 [19] was greater than 339 nM, the concentration at 24 h [20] was 218 ng/mL and the Imax [21] was 69%. For the same molecule, the DC50 [22] was greater than 1000 nM, the Imax [23] was 15% and the Activity [24] was 29%. For the same molecule, the Imax [25] was 79% and the Activity [26] was 30%.
